Tests used:
[1] = molecular target: T1, full-length recombinant rat vitamin D receptor (Rattus norvegicus, UniProt P13053); assay: Vitamin D receptor competitive binding with [3H]-1,25-(OH)2-D3; conditions: competition with [3H]-1,25-(OH)2-D3; FIG. 1
T1 construct: Full-length recombinant rat vitamin D receptor was expressed in E. coli; histidine tag (C); made in house; host or cells: E. coli BL21(DE3) Codon Plus RIL
T1 sequence (P13053 1-423): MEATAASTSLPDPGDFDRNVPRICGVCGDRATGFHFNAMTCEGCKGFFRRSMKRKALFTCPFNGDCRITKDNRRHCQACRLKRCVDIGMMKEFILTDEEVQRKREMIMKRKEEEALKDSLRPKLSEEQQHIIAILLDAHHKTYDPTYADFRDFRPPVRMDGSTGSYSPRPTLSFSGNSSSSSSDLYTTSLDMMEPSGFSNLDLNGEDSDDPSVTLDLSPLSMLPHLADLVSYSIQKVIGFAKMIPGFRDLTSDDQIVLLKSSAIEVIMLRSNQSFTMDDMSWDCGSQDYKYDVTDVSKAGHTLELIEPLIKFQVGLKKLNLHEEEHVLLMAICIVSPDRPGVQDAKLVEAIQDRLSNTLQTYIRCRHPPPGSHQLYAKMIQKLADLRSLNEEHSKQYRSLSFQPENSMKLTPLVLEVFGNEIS
Protocol: The first system was a nickel affinity resin that utilizes the C-terminal histidine tag on this protein. The protein that was eluted from this resin was further purified using ion exchange chromatography (S-Sepharose Fast Flow). Aliquots of the purified protein were quick frozen in liquid nitrogen and stored at −80° C. until use. For use in binding assays, the protein was diluted in TEDK50 (50 mM Tris, 1.5 mM EDTA, pH 7.4, 5 mM DTT, 150 mM KCl) with 0.1% Chaps detergent. The receptor protein and ligand concentration was optimized such that no more than 20% of the added radiolabeled ligand was bound to the receptor.
Radiolabeled and unlabeled ligands were added to 100 mcl of the diluted protein at a final ethanol concentration of ≦10%, mixed and incubated overnight on ice to reach binding equilibrium. The following day, 100 mcl of hydroxylapatite slurry (50%) was added to each tube and mixed at 10-minute intervals for 30 minutes. The hydroxylapaptite was collected by centrifugation and then washed three times with Tris-EDTA buffer (50 mM Tris, 1.5 mM EDTA, pH 7.4) containing 0.5% Titron X-100. After the final wash, the pellets were transferred to scintillation vials containing 4 mL of Biosafe II scintillation cocktail, mixed and placed in a scintillation counter. Total binding was determined from the tubes containing only radiolabeled ligand.

[2] = tested on: 24-hydroxylase (24OHase) gene promoter in ROS 17/2.8 (bone) cells; assay: In vitro transcription assay, antagonism of 1,25(OH)2D3 (24OHase promoter-luciferase); type: cell-based; conditions: combination with 1,25(OH)2D3 in the same well; FIGS. 3-5
Protocol: Transcription activity was measured in ROS 17/2.8 (bone) cells that were stably transfected with a 24-hydroxylase (24OHase) gene promoter upstream of a luciferase reporter gene (Arbour et al., 1998). Cells were given a range of doses. Sixteen hours after dosing the cells were harvested and luciferase activities were measured using a luminometer. RLU=relative luciferase units.
Antagonism was tested by adding a combination of 1,25(OH)2D3 and the compound in the same well keeping the final ethanol concentration the same.

[3] = tested on: Sprague-Dawley rats; assay: Bone calcium mobilization (serum calcium); type: in vivo, rat; conditions: four consecutive ip doses, even at 2,340 pmol/day, FIG. 6
Protocol: (§1) Male, weanling Sprague-Dawley rats were placed on Diet 11 (Suda et al. J. Nutr. 100:1049, 1970) (0.47% Ca) diet+vitamins AEK for one week followed by Diet 11 (0.02% Ca)+AEK for 3 weeks. The rats were then switched to a diet containing 0.47% Ca for one week followed by two weeks on a diet containing 0.02% Ca. Dose administration began during the last week on 0.02% calcium diet. Four consecutive ip doses were given approximately 24 hours apart. Twenty-four hours after the last dose, blood was collected from the severed neck and the concentration of serum calcium determined as a measure of bone calcium mobilization. The first 10 cm of the intestine was also collected for intestinal calcium transport analysis using the everted gut sac method. Antagonism was tested by administering a combination of 1,25(OH)2D3 and the compound to the animal simultaneously.

[4] = tested on: Sprague-Dawley rats; assay: Intestinal calcium transport (everted gut sac method); type: in vivo, rat; conditions: four consecutive ip doses, FIG. 7
Protocol: as §1

[5] = tested on: HL-60 cells; assay: HL-60 differentiation (nitro blue tetrazolium reduction); type: cell-based, human; conditions: FIG. 2
Protocol: The study drugs were dissolved in ethanol and the concentrations determined using UV spectrophotometry. Serial dilutions were prepared so that a range of drug concentrations could be tested without changing the final concentration of ethanol (≦0.2%) present in the cell cultures.
Human promyelocyiic leukemia (HL60) cells were grown in RPMI-1640 medium containing 10% fetal bovine serum. The cells were incubated at 37° C. in the presence of 5% CO2.
HL60 cells were plated at 1.2×10^5 cells/mL. Eighteen hours after plating, cells in duplicate were treated with drug. Four days later, the cells were harvested and a nitro blue tetrazolium reduction assay was performed (Collins et al., 1979; J. Exp. Med. 149:969-974). The percentage of differentiated cells was determined by counting a total of 200 cells and recording the number that contained intracellular black-blue formazan deposits. Verification of differentiation to monocytic cells was determined by measuring phagocytic activity (data not shown).

Structure (SMILES) | binding to the vitamin D receptor relative to 1α,25-dihydroxyvitamin D3 [1] | antagonistic activity when administered along with 1α,25-dihydroxyvitamin D3 (transcription) [2] | calcemic activity measured by bone calcium mobilization [3] | intestinal calcium transport [4] | activity in inducing differentiation of HL-60 cells relative to 1,25-(OH)2D3 [5]
C=C1C[C@H](C[C@@H](C)C2CC[C@H]3/C(=C/C=C4C[C@@H](O)C(=C)[C@H](O)C4)CCC[C@]23C)OC1=O (stereo partly drawn) [HLV, 2-methylene-19-nor-(23S)-25-dehydro-1α-hydroxyvitamin D3-26,23-lactone] | less active | antagonistic activity to an even greater extent | no calcemic activity | retain the ability to elevate intestinal calcium transport | less activity than 1,25-(OH)2D3
C=C1C[C@@H](C[C@@H](C)C2CC[C@H]3/C(=C/C=C4C[C@@H](O)C(=C)[C@H](O)C4)CCC[C@]23C)OC1=O (stereo partly drawn) [GC-3, 2-methylene-19-nor-(23R)-25-dehydro-1α-hydroxyvitamin D3-26,23-lactone] | less active | shows antagonistic activity | no calcemic activity | retain the ability to elevate intestinal calcium transport | less activity than 1,25-(OH)2D3
